What all share (type): cell-based
The target in assay [1] is T1, human GLP-1 receptor (GLP-1R) (Homo sapiens, UniProt P43220).
T1 construct: expressed in transfected cells
In words: cAMP assay, human GLP-1R cells. A digest of the protocol:
(§1)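 Peptide-stimulated cAMP measured by two-step HTRF after a 30 min room-temperature incubation with receptor-expressing cells (hGLP-1R, hGIPR at 1×10^5 cells/ml; hGCGR at 2×10^5 cells/ml). Duplicate dilutions; EC50 from 4-parameter logistic fit of % Delta F.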
A general note: cAMP levels reflect the balance of adenylyl cyclase and phosphodiesterase activity.

For assay [2], the target named is T2, human glucagon receptor (GCGR) (Homo sapiens, UniProt P47871).
T2 construct: expressed in transfected cells
In words: cAMP assay, human GCGR cells. Particulars: cAMP assay. In outline:
as §1

The target in assay [3] is T3, human glucose-dependent insulinotropic peptide receptor (GIPR) (Homo sapiens, UniProt P48546).
T3 construct: expressed in transfected cells
T3 sequence (P48546 22-466): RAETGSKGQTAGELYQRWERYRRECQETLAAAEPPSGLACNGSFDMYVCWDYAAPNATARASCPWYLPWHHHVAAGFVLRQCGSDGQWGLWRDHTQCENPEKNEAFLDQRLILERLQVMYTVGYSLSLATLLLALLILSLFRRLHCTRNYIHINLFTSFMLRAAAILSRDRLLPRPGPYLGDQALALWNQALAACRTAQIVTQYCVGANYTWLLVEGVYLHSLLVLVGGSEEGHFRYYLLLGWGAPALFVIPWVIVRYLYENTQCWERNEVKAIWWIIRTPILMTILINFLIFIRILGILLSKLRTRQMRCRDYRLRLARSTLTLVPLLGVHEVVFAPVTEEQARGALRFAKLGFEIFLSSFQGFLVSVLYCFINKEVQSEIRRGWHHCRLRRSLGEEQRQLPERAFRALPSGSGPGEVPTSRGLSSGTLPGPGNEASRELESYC
Briefly: cAMP assay, human GIPR cells. Particulars: cAMP assay. In outline:
as §1

Assay [4] addresses T4, GLP-1R (INS1e assay) (Rattus norvegicus, UniProt P32301).
T4 construct: endogenous in cells; host or cells: INS-1E cells
T4 sequence (P32301 22-463): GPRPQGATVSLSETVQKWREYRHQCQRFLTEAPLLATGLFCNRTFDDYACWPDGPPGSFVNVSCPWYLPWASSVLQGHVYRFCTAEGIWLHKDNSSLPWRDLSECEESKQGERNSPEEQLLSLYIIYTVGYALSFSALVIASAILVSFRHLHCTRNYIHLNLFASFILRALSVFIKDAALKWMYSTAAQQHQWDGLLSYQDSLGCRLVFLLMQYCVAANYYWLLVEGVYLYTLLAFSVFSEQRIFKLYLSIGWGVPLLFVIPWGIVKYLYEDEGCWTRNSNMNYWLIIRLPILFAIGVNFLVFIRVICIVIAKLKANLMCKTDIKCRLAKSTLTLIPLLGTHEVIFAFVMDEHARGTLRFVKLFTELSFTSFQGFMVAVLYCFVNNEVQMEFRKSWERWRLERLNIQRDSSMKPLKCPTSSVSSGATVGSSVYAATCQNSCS
Briefly: INS1e assay, cAMP activity at GLP-1R. Particulars: mono-lipidated peptides. In outline: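 It pairs cAMP-d2 acceptor with anti-cAMP cryptate donor, both prepared 1/20 in conjugate/lysis buffer, applied as a two-step protocol.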

Where [5] appears, read: cAMP assay, first determination (n1), read-out: Primary assay EC50 GLP-1R n1.
Where [6] appears, read: cAMP assay, second determination (n2), read-out: Primary assay EC50 GLP-1R n2.
Setting [7] is: mean of n1 and n2, read-out: Mean pM GLP-1R.
Where [8] appears, read: first determination (n1), read-out: Primary assay EC50 Gluc-R (n1).
Where [9] appears, read: second determination (n2), read-out: Primary assay EC50 Gluc-R (n2).
The mark [10] stands for this setting: first determination (n1), read-out: Primary assay EC50 GIP-R (n1).
Setting [11] is: second determination (n2), read-out: Primary assay EC50 GIP-R (n2).
Setting [12] is: mean of n1 and n2, read-out: INS1e assay EC50 Mean pM GLP-1R.
[13] abbreviates: replicate n1, read-out: INS1e assay EC50 GLP-1R n1.
Where [14] appears, read: replicate n2, read-out: INS1e assay EC50 GLP-1R n2.

The results in this text go back to patent US10414811B2, “Protease-resistant lipidated GLP-1 analogs” (MEDIMMUNE LIMITED, priority 2015, dated 2019).

Where two headings read alike, the source gives them in different places. Numbered stars: 1 amine (or outer) side, 2 acyl side, 3 side chain; on linkers, the order of the positions; unused ones are H or OH. Square brackets hold non-standard residues; d marks the D form. Side chains are listed from the residue outwards. Peptide text beside a SMILES is read from it. * marks the point of attachment. C18 diacid = O=C(O)CCCCCCCCCCCCCCCCC(=O)*; γGlu = O=C(O)[C@H](CCC(=O)[*:2])N[*:1]; Palmitoyl = CCCCCCCCCCCCCCCC(=O)*; αMeF = C[C@](N)(Cc1ccccc1)C(=O)O; αMeK = C[C@](N)(CCCCN)C(=O)O; αMeS = C[C@](N)(CO)C(=O)O; AEEA = NCCOCCOCC(=O)O; Aib = CC(C)(N)C(=O)O

T1 sequence (P43220 24-463): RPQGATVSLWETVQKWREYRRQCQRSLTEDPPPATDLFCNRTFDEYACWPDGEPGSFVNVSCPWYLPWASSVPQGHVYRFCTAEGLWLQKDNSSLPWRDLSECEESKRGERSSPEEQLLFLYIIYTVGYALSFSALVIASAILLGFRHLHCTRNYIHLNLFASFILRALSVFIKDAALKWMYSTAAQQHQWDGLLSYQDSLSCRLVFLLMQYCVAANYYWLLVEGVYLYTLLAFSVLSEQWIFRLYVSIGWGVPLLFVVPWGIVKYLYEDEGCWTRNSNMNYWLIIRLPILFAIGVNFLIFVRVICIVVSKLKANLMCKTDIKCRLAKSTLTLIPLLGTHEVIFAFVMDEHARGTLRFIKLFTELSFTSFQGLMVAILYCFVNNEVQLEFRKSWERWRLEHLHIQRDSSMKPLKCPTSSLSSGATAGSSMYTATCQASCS
T2 sequence (P47871 26-477): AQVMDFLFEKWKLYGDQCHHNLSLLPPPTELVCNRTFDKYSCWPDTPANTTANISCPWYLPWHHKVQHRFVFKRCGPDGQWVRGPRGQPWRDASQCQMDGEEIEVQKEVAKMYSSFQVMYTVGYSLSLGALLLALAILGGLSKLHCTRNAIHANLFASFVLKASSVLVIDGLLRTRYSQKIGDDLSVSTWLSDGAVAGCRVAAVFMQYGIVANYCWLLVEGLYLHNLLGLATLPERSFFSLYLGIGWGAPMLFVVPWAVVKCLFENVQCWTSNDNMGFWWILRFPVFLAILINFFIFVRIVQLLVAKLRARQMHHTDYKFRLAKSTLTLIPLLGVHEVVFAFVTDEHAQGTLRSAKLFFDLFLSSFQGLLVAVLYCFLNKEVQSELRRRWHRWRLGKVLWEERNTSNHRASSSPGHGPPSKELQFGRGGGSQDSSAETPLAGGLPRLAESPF

Turning to `CC[C@H](C)[C@H](NC(=O)[C@](C)(Cc1ccccc1)NC(=O)[C@H](CCCCNC(=O)COCCOCCNC(=O)COCCOCCNC(=O)CC[C@H](NC(=O)CCCCCCCCCCCCCCCCC(=O)O)C(=O)O)NC(=O)[C@](C)(CCCCN)NC(=O)[C@H](C)NC(=O)[C@H](C)NC(=O)[C@H](CCC(=O)O)NC(=O)CNC(=O)[C@H](CCC(=O)O)NC(=O)[C@H](CC(C)C)NC(=O)[C@](C)(Cc1ccccc1)NC(=O)[C@H](CO)NC(=O)[C@](C)(CO)NC(=O)[C@@H](NC(=O)[C@H](CC(=O)O)NC(=O)[C@H](CO)NC(=O)[C@@H](NC(=O)[C@](C)(Cc1ccccc1)NC(=O)[C@H](CO)NC(=O)CNC(=O)[C@H](CCC(=O)O)NC(=O)C(C)(C)NC(=O)[C@@H](N)Cc1c[nH]cn1)[C@@H](C)O)C(C)C)C(=O)N[C@@H](C)C(=O)N[C@@](C)(Cc1ccccc1)C(=O)N[C@H](C(=O)N[C@H](C(=O)N[C@@](C)(CCCCN)C(=O)NCC(=O)NCC(N)=O)C(C)C)C(C)C` [compound 108] (H-H[Aib]EGS[αMeF]TSDV[αMeS]S[αMeF]LEGEAA[αMeK]K([AEEA-AEEA-γGlu-C18 diacid])[αMeF]IA[αMeF]VV[αMeK]GG-NH2; N-terminus assumed), the EC50 in assay [1] (setting [5]) is 3.8 pM; in assay [1] (setting [6]), 3.46 pM; in assay [1] (setting [7]) it was 4 pM; in assay [2] (setting [8]) it was no less than 25 nM; in assay [2] (setting [9]) it was no less than 25.4 nM; in assay [3] (setting [10]) it was no less than 25 nM. For the same compound, the EC50 in assay [3] (setting [11]) was no less than 25.4 nM; in assay [4] (setting [12]), 248 pM; in assay [4] (setting [13]), 38 pM; in assay [4] (setting [14]), 458 pM.

Turning to `CC[C@H](C)[C@H](NC(=O)[C@](C)(Cc1ccccc1)NC(=O)[C@H](CCC(=O)O)NC(=O)[C@H](CCCCNC(=O)COCCOCCNC(=O)COCCOCCNC(=O)CC[C@H](NC(=O)CCCCCCCCCCCCCCCCC(=O)O)C(=O)O)NC(=O)[C@H](C)NC(=O)[C@H](C)NC(=O)[C@H](CCC(=O)O)NC(=O)CNC(=O)[C@H](CCC(=O)O)NC(=O)[C@H](CC(C)C)NC(=O)[C@](C)(Cc1ccccc1)NC(=O)[C@H](CO)NC(=O)[C@](C)(CO)NC(=O)[C@@H](NC(=O)[C@H](CC(=O)O)NC(=O)[C@H](CO)NC(=O)[C@@H](NC(=O)[C@](C)(Cc1ccccc1)NC(=O)[C@H](CO)NC(=O)CNC(=O)[C@H](CCC(=O)O)NC(=O)C(C)(C)NC(=O)[C@@H](N)Cc1c[nH]cn1)[C@@H](C)O)C(C)C)C(=O)N[C@@H](C)C(=O)N[C@@](C)(Cc1ccccc1)C(=O)N[C@H](C(=O)N[C@H](C(=O)N[C@@H](CCCCN)C(=O)NCC(=O)NCC(N)=O)C(C)C)C(C)C` [compound 50], the EC50 is 170 pM in assay [1] (setting [5]); 260 pM in assay [1] (setting [6]); 216 pM in assay [1] (setting [7]); no less than 26 nM in assay [2] (setting [8]); no less than 26 nM in assay [3] (setting [10]); 32400 pM in assay [4] (setting [12]). In addition, the EC50 was 22100 pM in assay [4] (setting [13]) and 42600 pM in assay [4] (setting [14]).

For `CCCCCCCCCCCC(=O)NCCCCCC(=O)NCCCCCC(=O)NCCCC[C@H](NC(=O)[C@@H](NC(=O)[C@@H](NC(=O)[C@](C)(Cc1ccccc1)NC(=O)[C@H](C)NC(=O)[C@@H](NC(=O)[C@](C)(Cc1ccccc1)NC(=O)[C@H](CCC(=O)O)NC(=O)[C@](C)(CCCCN)NC(=O)[C@H](C)NC(=O)[C@H](C)NC(=O)[C@H](CCC(=O)O)NC(=O)CNC(=O)[C@H](CCC(=O)O)NC(=O)[C@H](CC(C)C)NC(=O)[C@](C)(Cc1ccccc1)NC(=O)[C@H](CO)NC(=O)[C@](C)(CO)NC(=O)[C@@H](NC(=O)[C@H](CC(=O)O)NC(=O)[C@H](CO)NC(=O)[C@@H](NC(=O)[C@](C)(Cc1ccccc1)NC(=O)[C@H](CO)NC(=O)CNC(=O)[C@H](CCC(=O)O)NC(=O)C(C)(C)NC(=O)[C@@H](N)Cc1c[nH]cn1)[C@@H](C)O)C(C)C)[C@@H](C)CC)C(C)C)C(C)C)C(=O)NCC(=O)NCC(N)=O` [compound 168], the EC50 in assay [1] (setting [5]) was 5.1 pM; in assay [1] (setting [6]), 2.6 pM; in assay [1] (setting [7]), 3.8 pM; in assay [2] (setting [8]), no less than 28 nM; in assay [2] (setting [9]), no less than 28 nM; in assay [3] (setting [10]), no less than 28 nM. In addition, the EC50 in assay [3] (setting [11]) was no less than 28 nM; in assay [4] (setting [12]) it was 326 pM; in assay [4] (setting [13]), 189 pM; in assay [4] (setting [14]) it was 462 pM.

In the case of `CCCCCCCCCCCCCCCC(=O)N[C@@H](CCC(=O)NCCCC[C@H](NC(=O)[C@H](CCC(=O)O)NC(=O)CNC(=O)[C@H](CCC(=O)O)NC(=O)[C@H](CC(C)C)NC(=O)[C@](C)(Cc1ccccc1)NC(=O)[C@H](CO)NC(=O)[C@](C)(CO)NC(=O)[C@@H](NC(=O)[C@H](CC(=O)O)NC(=O)[C@H](CO)NC(=O)[C@@H](NC(=O)[C@](C)(Cc1ccccc1)NC(=O)[C@H](CO)NC(=O)CNC(=O)[C@H](CCC(=O)O)NC(=O)C(C)(C)NC(=O)[C@@H](N)Cc1c[nH]cn1)[C@@H](C)O)C(C)C)C(=O)N[C@@H](C)C(=O)N[C@@](C)(CCCCN)C(=O)N[C@@H](CCC(=O)O)C(=O)N[C@@](C)(Cc1ccccc1)C(=O)N[C@H](C(=O)N[C@@H](C)C(=O)N[C@@](C)(Cc1ccccc1)C(=O)N[C@H](C(=O)N[C@H](C(=O)N[C@@](C)(CCCCN)C(=O)NCC(=O)NCC(N)=O)C(C)C)C(C)C)[C@@H](C)CC)C(=O)O` [compound 82] (H-H[Aib]EGS[αMeF]TSDV[αMeS]S[αMeF]LEGEK([γGlu-Palmitoyl])A[αMeK]E[αMeF]IA[αMeF]VV[αMeK]GG-NH2; N-terminus assumed), the EC50 is 3 pM in assay [1] (setting [5]); 2 pM in assay [1] (setting [6]); 2.5 pM in assay [1] (setting [7]); no less than 27 nM in assay [2] (setting [8]); no less than 27 nM in assay [2] (setting [9]); no less than 27 nM in assay [3] (setting [10]). Also, the EC50 is no less than 27 nM in assay [3] (setting [11]), 195 pM in assay [4] (setting [12]), 151 pM in assay [4] (setting [13]) and 238 pM in assay [4] (setting [14]).

For the compound `CC[C@H](C)[C@H](NC(=O)[C@](C)(Cc1ccccc1)NC(=O)[C@H](CCC(=O)O)NC(=O)[C@H](CCCCNC(=O)COCCOCCNC(=O)COCCOCCNC(=O)CC[C@H](NC(=O)CCCCCCCCCCCCCCCCC(=O)O)C(=O)O)NC(=O)[C@H](C)NC(=O)[C@H](C)NC(=O)[C@H](CCC(=O)O)NC(=O)CNC(=O)[C@H](CCC(=O)O)NC(=O)[C@H](CC(C)C)NC(=O)[C@](C)(Cc1ccccc1)NC(=O)[C@H](CO)NC(=O)[C@](C)(CO)NC(=O)[C@@H](NC(=O)[C@H](CC(=O)O)NC(=O)[C@H](CO)NC(=O)[C@@H](NC(=O)[C@H](Cc1ccccc1)NC(=O)[C@H](CO)NC(=O)CNC(=O)[C@H](CCC(=O)O)NC(=O)C(C)(C)NC(=O)[C@@H](N)Cc1c[nH]cn1)[C@@H](C)O)C(C)C)C(=O)N[C@@H](C)C(=O)N[C@@](C)(Cc1ccccc1)C(=O)N[C@H](C(=O)N[C@H](C(=O)N[C@@](C)(CCCCN)C(=O)NCC(=O)NCC(N)=O)C(C)C)C(C)C` [compound 45], the EC50 in assay [1] (setting [5]) is 3800 pM; in assay [1] (setting [6]) it was 3300 pM; in assay [1] (setting [7]), 3560 pM; in assay [2] (setting [8]) it was no less than 26 nM; in assay [2] (setting [9]), no less than 26 nM; in assay [3] (setting [10]), no less than 26 nM. Also, the EC50 in assay [3] (setting [11]) was no less than 26 nM; in assay [4] (setting [12]), 94600 pM; in assay [4] (setting [13]) it was 76100 pM; in assay [4] (setting [14]), 113000 pM.
